Assay results as given in patent publication US20230141101A1, “PDE4 INHIBITOR COMPOUND AND MEDICAL USE THEREOF” (Suzhou Longbotai Pharmaceuticals Co., Ltd., priority 2020, published 2023).

What was measured:
Format in all cases: biochemical
Settings in all cases: 20 nM
[1] = target: T1, PDE4A1A (Homo sapiens, UniProt P27815); assay: PDE4 inhibitory activity assay (FAM-cAMP enzymatic reaction), PDE4A1A
T1 construct: purchased BPS 60040
Summary of the method: (§1)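 Human PDE4A1A, PDE4B1 or PDE4D2 preincubated with compound 15 min at room temperature, then FAM-cAMP substrate added; reaction 30 min at room temperature before stop solution and further 60 min. Fluorescence read on multilabel counter; IC50 fitted from inhibition rates.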

[2] = target: T2, PDE4B1 (Homo sapiens, UniProt Q07343); assay: PDE4 inhibitory activity assay (FAM-cAMP enzymatic reaction), PDE4B1
T2 construct: purchased BPS 60041
Summary of the method: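 Each isoform is incubated with test compound for 15 min at room temperature before FAM-cAMP substrate starts a 30-min reaction.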

[3] = target: PDE4D2 (Homo sapiens, UniProt Q08499); assay: PDE4 inhibitory activity assay (FAM-cAMP enzymatic reaction), PDE4D2
Summary of the method: as §1

T1 sequence (P27815 1-647 isoform P27815-4): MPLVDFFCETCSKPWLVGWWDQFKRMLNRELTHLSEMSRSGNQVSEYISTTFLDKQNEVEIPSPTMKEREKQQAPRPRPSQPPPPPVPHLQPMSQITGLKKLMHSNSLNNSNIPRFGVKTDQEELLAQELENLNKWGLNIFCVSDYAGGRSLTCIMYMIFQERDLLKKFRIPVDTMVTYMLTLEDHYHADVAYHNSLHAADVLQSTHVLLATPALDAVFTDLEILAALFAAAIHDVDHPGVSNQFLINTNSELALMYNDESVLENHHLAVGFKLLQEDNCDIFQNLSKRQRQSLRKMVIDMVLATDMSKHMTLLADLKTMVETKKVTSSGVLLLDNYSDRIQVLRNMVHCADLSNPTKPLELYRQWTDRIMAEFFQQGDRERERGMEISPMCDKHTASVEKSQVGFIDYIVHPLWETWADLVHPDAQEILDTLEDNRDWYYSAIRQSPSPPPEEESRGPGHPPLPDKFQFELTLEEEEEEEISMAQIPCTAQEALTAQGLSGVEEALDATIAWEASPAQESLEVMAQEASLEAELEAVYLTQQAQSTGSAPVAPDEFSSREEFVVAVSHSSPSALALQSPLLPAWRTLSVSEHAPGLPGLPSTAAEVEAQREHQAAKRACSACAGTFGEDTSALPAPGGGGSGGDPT
T2 sequence (Q07343 whole entry): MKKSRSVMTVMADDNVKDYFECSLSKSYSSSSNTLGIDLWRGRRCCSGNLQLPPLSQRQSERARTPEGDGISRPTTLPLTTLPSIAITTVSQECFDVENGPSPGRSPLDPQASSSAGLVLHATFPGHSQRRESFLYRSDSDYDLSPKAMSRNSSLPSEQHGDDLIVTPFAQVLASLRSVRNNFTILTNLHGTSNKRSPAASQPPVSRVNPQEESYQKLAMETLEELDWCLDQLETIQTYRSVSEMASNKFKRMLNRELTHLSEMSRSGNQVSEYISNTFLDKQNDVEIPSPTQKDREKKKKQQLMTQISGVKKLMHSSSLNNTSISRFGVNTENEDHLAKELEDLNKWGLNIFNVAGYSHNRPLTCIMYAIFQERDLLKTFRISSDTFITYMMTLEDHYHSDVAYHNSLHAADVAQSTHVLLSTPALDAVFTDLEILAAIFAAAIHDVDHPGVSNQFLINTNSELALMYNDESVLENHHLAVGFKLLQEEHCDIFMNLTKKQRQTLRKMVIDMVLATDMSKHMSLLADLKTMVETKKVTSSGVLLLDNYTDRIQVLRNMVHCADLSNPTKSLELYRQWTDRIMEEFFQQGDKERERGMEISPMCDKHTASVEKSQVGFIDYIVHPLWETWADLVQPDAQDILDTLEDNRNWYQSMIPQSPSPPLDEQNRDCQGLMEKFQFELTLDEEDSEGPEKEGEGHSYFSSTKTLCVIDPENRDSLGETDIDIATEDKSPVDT
Chain of PDE4D2 (Q08499 303-809): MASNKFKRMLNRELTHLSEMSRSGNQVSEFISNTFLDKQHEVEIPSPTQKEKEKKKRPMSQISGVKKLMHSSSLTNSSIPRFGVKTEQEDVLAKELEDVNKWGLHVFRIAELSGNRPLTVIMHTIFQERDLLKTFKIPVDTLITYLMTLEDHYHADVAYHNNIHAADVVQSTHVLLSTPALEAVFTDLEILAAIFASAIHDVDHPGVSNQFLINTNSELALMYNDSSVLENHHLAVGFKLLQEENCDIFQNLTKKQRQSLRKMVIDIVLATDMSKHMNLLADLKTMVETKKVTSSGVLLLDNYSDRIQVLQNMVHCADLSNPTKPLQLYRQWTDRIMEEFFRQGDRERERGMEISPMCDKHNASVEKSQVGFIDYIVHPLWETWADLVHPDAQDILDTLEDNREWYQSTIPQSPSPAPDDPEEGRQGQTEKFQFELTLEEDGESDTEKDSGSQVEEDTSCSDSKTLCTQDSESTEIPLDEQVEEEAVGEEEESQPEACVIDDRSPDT

CCOc1nc([C@@H](CS(C)(=O)=O)n2c(=O)n(C)c3cc(-c4ccccc4F)cnc32)ccc1OC [Ex. 126, (S)-3-(1-(6-ethoxy-5-methoxypyridin-2-yl)-2-(methylsulfonyl)ethyl)-6-(2-fluorophenyl)-1-methyl-1H-imidazo[4,5-b]pyridin-2(3H)-one]
+: PDE4 A1 inhibitory effect at 20 nM [1] | PDE4 B1 inhibitory effect at 20 nM [2] | PDE4 D2 inhibitory effect at 20 nM [3]

CCOc1nc([C@@H](CS(C)(=O)=O)n2c(=O)n(C)c3cc(-c4ccc(F)cc4)cnc32)ccc1OC [Ex. 128, (S)-3-(1-(6-ethoxy-5-methoxypyridin-2-yl)-2-(methylsulfonyl)ethyl)-6-(4-fluorophenyl)-1-methyl-1H-imidazo[4,5-b]pyridin-2(3H)-one]
+: PDE4 A1 inhibitory effect at 20 nM [1] | PDE4 B1 inhibitory effect at 20 nM [2] | PDE4 D2 inhibitory effect at 20 nM [3]

CCOc1nc([C@@H](CS(C)(=O)=O)n2c(=O)[nH]c3cc(Br)ccc32)ccc1OC [Ex. 129, (S)-5-bromo-1-(1-(6-ethoxy-5-methoxypyridin-2-yl)-2-(methylsulfonyl)ethyl)-1H-benzo[d]imidazol-2(3H)-one]
+: PDE4 A1 inhibitory effect at 20 nM [1] | PDE4 B1 inhibitory effect at 20 nM [2] | PDE4 D2 inhibitory effect at 20 nM [3]

CCOc1nc([C@@H](CS(C)(=O)=O)n2c(=O)[nH]c3cc(-c4ccccc4)ccc32)ccc1OC [Ex. 130, (S)-1-(1-(6-ethoxy-5-methoxypyridin-2-yl)-2-(methylsulfonyl)ethyl)-5-phenyl-1H-benzo[d]imidazol-2(3H)-one]
+: PDE4 A1 inhibitory effect at 20 nM [1] | PDE4 B1 inhibitory effect at 20 nM [2] | PDE4 D2 inhibitory effect at 20 nM [3]

CCOc1nc([C@@H](CS(C)(=O)=O)n2c(=O)n(C)c3cc(-c4ccccc4)ccc32)ccc1OC [Ex. 131, (S)-1-(1-(6-ethoxy-5-methoxypyridin-2-yl)-2-(methylsulfonyl)ethyl)-5-phenyl-3-methyl-1H-benzo[d]imidazol-2(3H)-one]
+: PDE4 A1 inhibitory effect at 20 nM [1] | PDE4 B1 inhibitory effect at 20 nM [2] | PDE4 D2 inhibitory effect at 20 nM [3]

CCOc1nc([C@@H](CS(C)(=O)=O)n2c(=O)[nH]c3cc(-c4ccccc4F)ccc32)ccc1OC [Ex. 132, (S)-1-(1-(6-ethoxy-5-methoxypyridin-2-yl)-2-(methylsulfonyl)ethyl)-5-(2-fluorophenyl)-1H-benzo[d]imidazol-2(3H)-one]
+: PDE4 A1 inhibitory effect at 20 nM [1] | PDE4 B1 inhibitory effect at 20 nM [2] | PDE4 D2 inhibitory effect at 20 nM [3]

CCOc1nc([C@H](CS(C)(=O)=O)n2c(=O)[nH]c3cc(-c4ccccc4F)ccc32)ccc1OC [Ex. 134, (R)-1-(1-(6-ethoxy-5-methoxypyridin-2-yl)-2-(methylsulfonyl)ethyl)-5-(2-fluorophenyl)-1H-benzo[d]imidazol-2(3H)-one]
+: PDE4 A1 inhibitory effect at 20 nM [1] | PDE4 B1 inhibitory effect at 20 nM [2] | PDE4 D2 inhibitory effect at 20 nM [3]

CCOc1nc([C@@H](CS(C)(=O)=O)n2c(=O)[nH]c3cc(-c4ccc(F)cc4)ccc32)ccc1OC [Ex. 135, (S)-1-(1-(6-ethoxy-5-methoxypyridin-2-yl)-2-(methylsulfonyl)ethyl)-5-(4-fluorophenyl)-1H-benzo[d]imidazol-2(3H)-one]
+: PDE4 A1 inhibitory effect at 20 nM [1] | PDE4 B1 inhibitory effect at 20 nM [2] | PDE4 D2 inhibitory effect at 20 nM [3]

CCOc1nc([C@H](CS(C)(=O)=O)n2c(=O)[nH]c3cc(-c4ccc(F)cc4)ccc32)ccc1OC [Ex. 136, (R)-1-(1-(6-ethoxy-5-methoxypyridin-2-yl)-2-(methylsulfonyl)ethyl)-5-(4-fluorophenyl)-1H-benzo[d]imidazol-2(3H)-one]
+: PDE4 A1 inhibitory effect at 20 nM [1] | PDE4 B1 inhibitory effect at 20 nM [2] | PDE4 D2 inhibitory effect at 20 nM [3]

CCOc1nc([C@@H](CS(C)(=O)=O)n2c(=O)n(C)c3cc(-c4ccc(F)cc4)ccc32)ccc1OC [Ex. 137, (S)-1-(1-(6-ethoxy-5-methoxypyridin-2-yl)-2-(methylsulfonyl)ethyl)-3-methyl-5-(4-fluorophenyl)-1H-benzo[d]imidazol-2(3H) one]
+: PDE4 A1 inhibitory effect at 20 nM [1] | PDE4 B1 inhibitory effect at 20 nM [2] | PDE4 D2 inhibitory effect at 20 nM [3]

CCOc1nc([C@H](CS(C)(=O)=O)n2c(=O)n(C)c3cc(-c4ccc(F)cc4)ccc32)ccc1OC [Ex. 138, (R)-1-(1-(6-ethoxy-5-methoxypyridin-2-yl)-2-(methylsulfonyl)ethyl)-3-methyl-5-(4-fluorophenyl)-1H-benzo[d]imidazol-2(3H)-one]
+: PDE4 A1 inhibitory effect at 20 nM [1] | PDE4 B1 inhibitory effect at 20 nM [2] | PDE4 D2 inhibitory effect at 20 nM [3]

CCOc1nc([C@@H](CS(C)(=O)=O)n2c(=O)[nH]c3cc(-c4ccccc4C)ccc32)ccc1OC [Ex. 139, (S)-1-(1-(6-ethoxy-5-methoxypyridin-2-yl)-2-(methylsulfonyl)ethyl)-5-(o-methylphenyl)-1H-benzo[d]imidazol-2(3H)-one]
+: PDE4 A1 inhibitory effect at 20 nM [1] | PDE4 B1 inhibitory effect at 20 nM [2] | PDE4 D2 inhibitory effect at 20 nM [3]

CCOc1nc([C@@H](CS(C)(=O)=O)n2c(=O)n(C)c3cc(-c4ccccc4C)ccc32)ccc1OC [Ex. 140, (S)-1-(1-(6-ethoxy-5-methoxypyridin-2-yl)-2-(methylsulfonyl)ethyl)-5-(o-methylphenyl)-3-methyl-1H-benzo[d]imidazol-2(3H)-one]
+: PDE4 A1 inhibitory effect at 20 nM [1] | PDE4 B1 inhibitory effect at 20 nM [2] | PDE4 D2 inhibitory effect at 20 nM [3]

CCOc1nc([C@H](CS(C)(=O)=O)n2c(=O)[nH]c3cc(-c4ccccc4C)ccc32)ccc1OC [Ex. 141, (R)-1-(1-(6-ethoxy-5-methoxypyridin-2-yl)-2-(methylsulfonyl)ethyl)-5-(o-methylphenyl)-1H-benzo[d]imidazol-2(3H)-one]
+: PDE4 A1 inhibitory effect at 20 nM [1] | PDE4 B1 inhibitory effect at 20 nM [2] | PDE4 D2 inhibitory effect at 20 nM [3]

CCOc1nc([C@@H](CS(C)(=O)=O)n2c(=O)[nH]c3cc(-c4ccccc4Cl)ccc32)ccc1OC [Ex. 142, (S)-5-(2-chlorophenyl)-1-(1-(6-ethoxy-5-methoxypyridin-2-yl)-2-(methylsulfonyl)ethyl)-1H-benzo[d]imidazol-2(3H)-one]
+: PDE4 A1 inhibitory effect at 20 nM [1] | PDE4 B1 inhibitory effect at 20 nM [2] | PDE4 D2 inhibitory effect at 20 nM [3]

CCOc1nc([C@@H](CS(C)(=O)=O)n2c(=O)[nH]c3cc(-c4ccccc4OC)ccc32)ccc1OC [Ex. 143, (S)-1-(1-(6-ethoxy-5-methoxypyridin-2-yl)-2-(methylsulfonyl)ethyl)-5-(2-methoxyphenyl)-1H-benzo[d]imidazol-2(3H)-one]
+: PDE4 A1 inhibitory effect at 20 nM [1] | PDE4 B1 inhibitory effect at 20 nM [2] | PDE4 D2 inhibitory effect at 20 nM [3]
